According to patent publication US5834452A, “1- or 6-hydroxylated steroids” (Roussel Uclaf, priority 1996, dated 1998):

Legend:
[1] = test system: endometrial proliferation (uterine lace); assay: Progestomimetic activity: endometrial transformation in the rabbit (Clauberg-McPhail test); type: in vivo; set-up: key to Average uterine lace (McPhail Index): McPhail scale 0–4 with 0.5 steps (endometrial proliferation); conditions: for Progestomimetic activity: rabbit
[2] = biological target: T1, Human glucocorticoid receptor (HGR) (Homo sapiens, UniProt P04150); assay: Relative bond affinity (RBA), recombinant human glucocorticoid receptor, charcoal dextran technique; type: binding; conditions: 24 h at 0° C.; Dexamethasone = 100
T1 construct: made in house; host or cells: SF9 insect cells (baculovirus), lysate supernatant
T1 sequence (P04150 1-777): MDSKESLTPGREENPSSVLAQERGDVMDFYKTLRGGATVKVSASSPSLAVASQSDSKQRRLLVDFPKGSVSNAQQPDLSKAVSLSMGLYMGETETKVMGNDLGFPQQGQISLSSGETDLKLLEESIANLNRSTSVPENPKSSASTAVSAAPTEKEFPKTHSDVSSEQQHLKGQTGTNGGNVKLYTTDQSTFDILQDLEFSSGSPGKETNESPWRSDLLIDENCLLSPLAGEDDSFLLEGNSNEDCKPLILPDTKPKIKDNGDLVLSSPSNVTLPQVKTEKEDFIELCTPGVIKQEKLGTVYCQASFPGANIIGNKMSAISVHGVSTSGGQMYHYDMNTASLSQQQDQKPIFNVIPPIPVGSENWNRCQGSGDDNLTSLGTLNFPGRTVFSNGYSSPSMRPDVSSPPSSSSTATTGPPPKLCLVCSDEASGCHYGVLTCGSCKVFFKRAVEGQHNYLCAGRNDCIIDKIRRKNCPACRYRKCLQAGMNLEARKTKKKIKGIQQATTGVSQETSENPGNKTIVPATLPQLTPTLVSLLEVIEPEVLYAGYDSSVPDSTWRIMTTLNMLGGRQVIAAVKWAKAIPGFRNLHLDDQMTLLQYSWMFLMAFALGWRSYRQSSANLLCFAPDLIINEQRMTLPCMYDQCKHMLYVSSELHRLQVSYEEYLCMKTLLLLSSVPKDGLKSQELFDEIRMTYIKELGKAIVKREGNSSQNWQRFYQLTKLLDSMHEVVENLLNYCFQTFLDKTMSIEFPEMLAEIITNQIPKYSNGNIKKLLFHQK
From the text: (§1) The human recombinant receptor (HGR, HPR, HAR, HMR, HER) was used.
Human glucocorticoid receptor (HGR):
A supernatant of SF9 cells containing the recombinant human glucocorticoid receptor was obtained by the process described above for the progestogen receptor using the cDNA fragment described by Hollenberg et al (Nature, (1985), Vol. 318 No. 19/26 635) containing the region coding for the human glucocorticoid receptor. The cells obtained were lysed in the lysis buffer (2).
The supernatant was incubated at 0° C. for 24 hours with a constant concentration (T) of tritiated 11β, 17β-dihydroxy-6,21-dimethyl-[…] the presence of increasing concentrations of either unlabelled dexamethasone (0-1000×10^-9 M), or the unlabelled product to be tested (1 to 25000×10^-9 M). The concentration of bound tritiated 11β, 17β-dihydroxy-6,21-dimethyl-Δ^1,4,6 -pregnatriene-20-yn-3-one (B) was then measured in each incubate using the charcoal dextran adsorption technique. […]
(§2) The following two curves were drawn: the percentage of bound tritiated hormone B/BO as a function of the logarithm of the concentration of unlabelled reference hormone or as a function of the logarithm of the concentration of unlabelled test product. The straight line of the following equation was determined: […]
(§3) The relative bond affinity (RBA) of the test product was determined by the equation: […]

[3] = biological target: T2, Human mineralocorticoid receptor (HMR) (Homo sapiens, UniProt P08235); assay: Relative bond affinity (RBA), recombinant human mineralocorticoid receptor, charcoal dextran technique; type: binding; conditions: 24 h at 0° C.; Aldosterone = 100
T2 construct: made in house; host or cells: SF9 insect cells (baculovirus), lysate supernatant
T2 sequence (P08235 1-984): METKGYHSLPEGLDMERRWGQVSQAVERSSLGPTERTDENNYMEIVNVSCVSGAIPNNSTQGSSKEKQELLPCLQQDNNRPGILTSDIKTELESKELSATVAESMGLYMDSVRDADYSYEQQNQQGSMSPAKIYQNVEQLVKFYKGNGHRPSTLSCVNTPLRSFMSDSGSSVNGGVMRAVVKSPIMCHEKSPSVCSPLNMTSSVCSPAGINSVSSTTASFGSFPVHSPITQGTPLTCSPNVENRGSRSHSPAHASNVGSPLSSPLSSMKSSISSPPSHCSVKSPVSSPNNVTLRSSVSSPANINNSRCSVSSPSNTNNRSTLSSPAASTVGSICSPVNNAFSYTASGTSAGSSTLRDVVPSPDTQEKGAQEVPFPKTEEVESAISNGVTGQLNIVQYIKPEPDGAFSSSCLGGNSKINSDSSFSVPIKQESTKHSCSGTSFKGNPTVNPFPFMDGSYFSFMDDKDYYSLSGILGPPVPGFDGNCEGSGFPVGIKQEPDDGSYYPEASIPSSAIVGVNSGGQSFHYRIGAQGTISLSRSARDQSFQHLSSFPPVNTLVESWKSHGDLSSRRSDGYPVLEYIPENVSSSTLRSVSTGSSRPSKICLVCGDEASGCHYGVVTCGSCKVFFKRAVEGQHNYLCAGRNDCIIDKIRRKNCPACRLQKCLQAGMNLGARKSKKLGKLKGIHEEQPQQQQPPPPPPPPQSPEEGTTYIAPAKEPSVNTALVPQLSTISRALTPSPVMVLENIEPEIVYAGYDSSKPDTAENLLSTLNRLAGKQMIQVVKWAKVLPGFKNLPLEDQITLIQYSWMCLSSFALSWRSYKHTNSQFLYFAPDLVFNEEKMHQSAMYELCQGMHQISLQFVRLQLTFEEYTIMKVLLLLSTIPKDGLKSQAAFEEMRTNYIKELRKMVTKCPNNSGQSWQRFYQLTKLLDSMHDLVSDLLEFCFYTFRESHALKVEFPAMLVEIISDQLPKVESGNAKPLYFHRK
From the text: as §1
Human mineralocorticoid receptor (HMR):
A supernatant of SF9 cells containing the recombinant human mineralocorticoid receptor was obtained according to the process described above for the progestogen receptor using the cDNA fragment described by Baulieu et al (Proc. Natl. Acad. Sci., (1991), Vol. 88, p. 10681-10685) containing the region coding for the human mineralocorticoid receptor. The cells obtained were lysed in the lysis buffer (4). The supernatant was incubated at 0° C. for 24 hours with a constant concentration (T) of tritiated aldosterone in the presence of increasing concentrations of either unlabelled aldosterone (0 to 1000×10^-9 M), or the unlabelled product to be tested (1 to 25000×10^-9 M). The concentration of bound tritiated aldosterone (B) was then measured in each incubate using the charcoal dextran adsorption technique.
Calculation of the relative bond affinity (RBA).
as §2, §3

SMILES: C[C@H](O)C(=O)[C@@]1(C)CC[C@H]2[C@@H]3CCC4=CC(=O)CCC4=C3CC[C@@]21C [Trimegestone, [17β-(S)]-17-(2-hydroxy-1-oxopropyl)-17-methyl-Δ^4,9-estradiene-3-one, reference compound]
- Progestomimetic activity ([1]; 3 μg/kg percutaneously): strong activity
- Average uterine lace (McPhail Index) ([1]; rabbit, 0,003 mg/kg, s/c, day 8 to day 11): 3,8
- Progestomimetic activity ([1]; 3 and 10 μg/kg orally): strong activity

SMILES: C[C@H](O)C(=O)[C@@]1(C)CC[C@H]2[C@@H]3C[C@@H](O)C4=CC(=O)CCC4=C3CC[C@@]21C [Product B, [6β, 17β-(S)]-6-hydroxy-17-(2-hydroxy-1-oxopropyl)-17-methyl-Δ^4,9-estradiene-3-one]
- RBA, Human glucocorticoid receptor [2]: no or negligible RBA's
- RBA, Human mineralocorticoid receptor [3]: no or negligible RBA's
